Source: ChEMBL document CHEMBL1201862, “PubChem BioAssay data set” (2004)
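Test compounds were applied to cells in 96-well plates for 48 hours at 5 doses. At the GI50, growth is halved.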 Calls of active or inactive are those of the source. Rule as the data show it: active = GI50 up to about 1.1 µM and inactive = higher.

Experiments:
Assay in all cases: DTP human tumour cell line panel, 48 h
786-0 = system: 786-0
BT-549 = system: BT-549
DU-145 = system: DU-145
HL-60 = system: HL-60
HOP-92 = system: HOP-92
Hs-578T = system: Hs-578T
IGROV-1 = system: IGROV-1
K562 = system: K562
KM12 = system: KM12
MDA-MB-231 = system: MDA-MB-231
MDA-N = system: MDA-N
MOLT-4 = system: MOLT-4
NCI-H522 = system: NCI-H522
NCI/ADR-RES = system: NCI/ADR-RES
OVCAR-5 = system: OVCAR-5
SF-268 = system: SF-268
SK-MEL-28 = system: SK-MEL-28
SK-MEL-5 = system: SK-MEL-5
SW-620 = system: SW-620
CCRF-CEM = system: CCRF-CEM

Measured: GI50

CC12CCC(C1)C(C)(C)C2OC(=O)c1ccccc1C(=O)O (centres undefined)
inactive: 786-0 > 100 µM | BT-549 > 100 µM | DU-145 > 100 µM | HL-60 > 100 µM | HOP-92 > 100 µM | Hs-578T 8.97 µM | IGROV-1 > 100 µM | K562 > 100 µM | KM12 > 100 µM | MDA-MB-231 > 100 µM | MDA-N > 100 µM | MOLT-4 > 100 µM | NCI-H522 > 100 µM | NCI/ADR-RES > 100 µM | OVCAR-5 > 100 µM | SF-268 > 100 µM | SK-MEL-28 > 100 µM | SK-MEL-5 > 100 µM | SW-620 > 100 µM

CN(C)C=O.O=C(Nc1nnn[nH]1)c1nc(O)cc(-c2ccccc2)n1
inactive: 786-0 > 100 µM | BT-549 > 100 µM | DU-145 > 100 µM | HL-60 > 100 µM | HOP-92 > 100 µM | Hs-578T > 100 µM | IGROV-1 > 100 µM | K562 > 100 µM | KM12 > 100 µM | MDA-MB-231 > 100 µM | MDA-N > 100 µM | MOLT-4 > 100 µM | NCI-H522 > 100 µM | NCI/ADR-RES > 100 µM | OVCAR-5 > 100 µM | SF-268 > 100 µM | SK-MEL-28 > 100 µM | SK-MEL-5 > 100 µM | SW-620 > 100 µM

COC(=O)c1ccc(Nc2nc3[nH]cnc3c(=O)[nH]2)cc1
inactive: 786-0 > 100 µM | BT-549 > 100 µM | CCRF-CEM > 100 µM | DU-145 > 100 µM | HL-60 > 100 µM | HOP-92 > 100 µM | Hs-578T > 100 µM | IGROV-1 > 100 µM | KM12 > 100 µM | MDA-MB-231 > 100 µM | MDA-N 32.9 µM | MOLT-4 87.1 µM | NCI-H522 > 100 µM | NCI/ADR-RES > 100 µM | OVCAR-5 > 100 µM | SF-268 94 µM | SK-MEL-28 > 100 µM | SK-MEL-5 > 100 µM | SW-620 > 100 µM

COc1ccc(OC)c(NCC(=O)Nn2cnc3ccc(S(=O)(=O)Nc4cc(OC)ccc4OC)cc3c2=O)c1
inactive: 786-0 > 100 µM | BT-549 > 100 µM | CCRF-CEM 35.5 µM | DU-145 > 100 µM | HL-60 16.2 µM | HOP-92 > 100 µM | Hs-578T > 100 µM | IGROV-1 > 100 µM | K562 44.3 µM | KM12 46 µM | MDA-MB-231 > 100 µM | MDA-N 41.3 µM | MOLT-4 31.2 µM | NCI-H522 40 µM | NCI/ADR-RES > 100 µM | OVCAR-5 > 100 µM | SF-268 > 100 µM | SK-MEL-28 > 100 µM | SW-620 > 100 µM

CC1(O)CC(C(F)(F)F)(C(F)(F)F)OC1=O (centres undefined)
inactive: 786-0 > 10 µM | BT-549 > 10 µM | CCRF-CEM > 10 µM | DU-145 > 10 µM | HOP-92 > 10 µM | Hs-578T > 10 µM | IGROV-1 > 10 µM | K562 > 10 µM | KM12 > 10 µM | MDA-MB-231 > 10 µM | MDA-N > 10 µM | MOLT-4 > 10 µM | NCI-H522 > 10 µM | NCI/ADR-RES > 10 µM | OVCAR-5 > 10 µM | SF-268 > 10 µM | SK-MEL-28 > 10 µM | SK-MEL-5 > 10 µM | SW-620 > 10 µM

COc1ccccc1C1(c2c(OC(C)C)c(=O)c2=O)SCCCS1
inactive: 786-0 > 100 µM | BT-549 72.6 µM | CCRF-CEM 40.5 µM | DU-145 > 100 µM | HL-60 > 100 µM | HOP-92 > 100 µM | Hs-578T > 100 µM | IGROV-1 > 100 µM | KM12 > 100 µM | MDA-MB-231 > 100 µM | MDA-N > 100 µM | MOLT-4 > 100 µM | NCI-H522 65.9 µM | NCI/ADR-RES > 100 µM | OVCAR-5 > 100 µM | SF-268 > 100 µM | SK-MEL-28 87.1 µM | SK-MEL-5 > 100 µM | SW-620 > 100 µM

CCc1cc(O)c(Cl)c(C)c1Cl
inactive: 786-0 17.1 µM | BT-549 17.5 µM | CCRF-CEM 18.2 µM | DU-145 16.7 µM | HL-60 33.7 µM | HOP-92 12.8 µM | Hs-578T 17.8 µM | IGROV-1 18.6 µM | KM12 15.2 µM | MDA-MB-231 27 µM | MDA-N 16.3 µM | NCI-H522 11.7 µM | NCI/ADR-RES 21.7 µM | OVCAR-5 20.6 µM | SF-268 20.9 µM | SK-MEL-28 19.5 µM | SK-MEL-5 17.5 µM | SW-620 21.9 µM

O=C(O)Cn1ncn(NC(=O)Cc2ccccc2)c1=S
inactive: 786-0 > 10 µM | BT-549 > 10 µM | CCRF-CEM > 10 µM | DU-145 > 10 µM | HOP-92 > 10 µM | Hs-578T > 10 µM | IGROV-1 > 10 µM | K562 > 10 µM | KM12 > 10 µM | MDA-MB-231 > 10 µM | MDA-N > 10 µM | MOLT-4 > 10 µM | NCI-H522 > 10 µM | NCI/ADR-RES > 10 µM | OVCAR-5 > 10 µM | SF-268 > 10 µM | SK-MEL-28 > 10 µM | SK-MEL-5 > 10 µM | SW-620 > 10 µM

CC1=CCC(=O)[C@]2(C)C(CC(=O)O)[C@]3(C)C4=C(C)C(c5ccoc5)C[C@@H]4O[C@@H]3[C@H](O)[C@@H]12 (some centres undefined)
inactive: 786-0 > 100 µM | BT-549 > 100 µM | CCRF-CEM > 100 µM | DU-145 > 100 µM | HL-60 > 100 µM | HOP-92 > 100 µM | Hs-578T > 100 µM | IGROV-1 > 100 µM | KM12 > 100 µM | MDA-MB-231 > 100 µM | MDA-N > 100 µM | MOLT-4 > 100 µM | NCI-H522 > 100 µM | NCI/ADR-RES > 100 µM | OVCAR-5 > 100 µM | SF-268 > 100 µM | SK-MEL-28 > 100 µM | SK-MEL-5 > 100 µM | SW-620 > 100 µM

O=[N+]([O-])c1ccc(Oc2c(Cl)cc(S(=O)(=O)N/C(=N\O)Nc3ccc(Cl)cc3)cc2Cl)c(Cl)c1
inactive: 786-0 14.7 µM | BT-549 14.8 µM | CCRF-CEM 27.3 µM | DU-145 13.6 µM | HL-60 26.2 µM | HOP-92 12.8 µM | Hs-578T 13.7 µM | K562 15.8 µM | KM12 13.7 µM | MDA-MB-231 17 µM | MDA-N 15.6 µM | MOLT-4 10.8 µM | NCI-H522 13 µM | NCI/ADR-RES 21.7 µM | OVCAR-5 19.5 µM | SF-268 13.6 µM | SK-MEL-28 21.6 µM | SK-MEL-5 16.9 µM | SW-620 24.9 µM
